Measurements from patent US20110281807A1, “PLANT DISEASE CONTROL AGENT COMPRISING D-TAGATOSE AS ACTIVE INGREDIENT, AND PLANT DISEASE CONTROL METHOD” (NATIONAL UNIVERSITY CORPORATION KAGAWA UNIVERSITY, priority 2008, published 2011).
Several values for one entry are separate records, joined by “and”; a condition that tells them apart may be missing. Equal entries are not always repeated. Where two headings read alike, the source gives them in different places.

Key:
[1] = tested on: Pseudoperonospora cubensis; assay: cucumber downy mildew, pot test: preventive effect; settings: for Preventive value (3 DAS): inoculated 3 days after spraying; for Preventive value (5 DAS): inoculated 5 days after spraying
Procedure: Test plants (cucumber, variety: Sagami hanpaku) were seeded and grown until the one true leaf stage. D-Tagatose was diluted to 5%, 1% and 0.5% with distilled water and then 10 ml of the dilution was sprayed on the test plant. Three or five days after spraying, a sporangium suspension of Pseudoperonospora cubensis containing 1×10^3/ml were inoculated by spraying on test plants and then the plants were put for 16 hours in an incubation chamber (20° C. to 23° C.) to promote disease. Seven days after inoculation the disease severity of the test plants was observed and the effectiveness of test sample was judged. Tests were carried out using two plants for each test set and the disease severity of the test plants was judged in accordance with the following criteria. The preventive value was calculated from the degree of the disease severity.
(§1) 0 (No lesion) 1 (Lesion area was not more than 40%) 2 ((Lesion area was 40%-80%) 3 (Lesion area was not less than 80%)
Preventive value=100{1−(n/N)} N=disease severity of untreated leaf, n=disease severity of the tested leaf

[2] = tested on: Pseudoperonospora cubensis; settings: alone
Procedure: Test plants (cucumber, variety: Sagami hanpaku) were seeded and grown until the one true leaf stage. D-tagatose alone was diluted to 5%, 1%, 0.5% and 0.1%, and the combination of D-tagatose and other saccharide were diluted to be 0.5% and 0.5% solution respectively with distilled water, and then 10 ml of the dilution was sprayed on the test plant. Three days after spraying of the solution, a sporangium suspension of Pseudoperonospora cubensis containing 1×10^3/ml were inoculated by spraying on test plants and then put them for 16 hours in an inoculation chamber (20° C. to 23° C.) to promote disease. Seven days after inoculation the disease severity of the test plants was observed and the effectiveness of test sample was judged. Tests were carried out using two plants for each test set and the disease severity of the test plants was judged in accordance with the following criteria. The preventive value was calculated from the degree of disease severity as in example 1.
Synergistic effect was determined by the Colby's equation below.
X is the observed effect, in percentage, of the first active ingredient and, and Y is the observed effect, in percentage, of the second active ingredient. E is the effect, in percentage, of the mixture expected from additive contribution of the individual components.

[3] = tested on: Pseudoperonospora cubensis; assay: cucumber downy mildew, pot test: curative effect
Procedure: Test plants (cucumber, variety: Sagami hanpaku) were seeded and grown until the one true leaf stage. And then a sporangium suspension of Pseudoperonospora cubensis containing 1×10^3/ml were sprayed on the back side of the leaves of test plants for inoculation and then the plants were put for 16 hours in an inoculation chamber (20° C. to 23° C.) to promote disease. For a curative test, the inoculated plants as described above were used.
D-Tagatose was diluted to 5%, 1% and 0.5% with distilled water and then 10 ml of the dilution was sprayed on the test plant. Seven days after the spraying of D-tagatose the disease severity of the test plants was observed and the effectiveness of test sample was judged. Tests were carried out using two plants for each test set and the disease severity of the test plants was judged. The control value was calculated from the degree of disease severity as in Example 1.

Phytophthora infestans [4] = format: in vivo; settings: inoculated 3 days after spraying
Peronospora parasitica = assay: cabbage downy mildew, pot test: preventive effect; settings: inoculated 3 days after spraying
Procedure: Test plants (cabbage, variety: Shikidori) were seeded and grown until 4 leaves stage. […] Three days after spraying, a suspension containing condia of cucumber downy mildew (Peronospora parasitica) was inoculated by spraying on test plants. Seven days after inoculation the disease severity of the test plants was observed and the effectiveness of test sample was judged. Tests were carried out using two plants for each test set and the disease severity of test plants was judged in accordance with the following criteria. The preventive value was calculated from the degree of disease severity as in Example 1.

Sphaerotheca fuligine = assay: cucumber powdery mildew, pot test: preventive effect; settings: inoculated 3 days after spraying
Procedure: Test plants (cucumber, variety: Sagami-hanpaku) were seeded and grown until the one true leaf stage. D-tagatose was diluted to 5% and 1% with distilled water and then 10 ml of the dilution was sprayed on the test plant. Three days after spraying, a condia suspension of Sphaerotheca fuligine was inoculated by spraying on test plants. Seven days after inoculation the disease severity of the test plants was observed and the effectiveness of test sample was judged. Tests were carried out using two plants for each test set and the disease severity of the test plants was judged in accordance with the following criteria.

[5] = tested on: Pseudoperonospora cubensis; settings: 5 ml soil drench, inoculated 5 days after drenching
Procedure: Test plants (cucumber, variety: Sagami hanpaku) were seeded and grown until the one true leaf stage. D-Tagatose was diluted to 5% and 1% with distilled water and then 5 ml of the dilution was drenched into the soil of the pot. Five days after drenching, a sporangium suspension of Pseudoperonospora cubensis containing 1×10^3/ml were noculated by spraying on the test plants and then put them for 16 hours in an inoculation chamber (20° C. to 23° C.) to promote disease. Seven days after inoculation the disease severity of the test plants was observed and the effectiveness of test sample was judged. Tests were carried out using two plants for each test set and the disease severity of the test plants was judged. The preventive value was calculated from the degree of disease severity as in Example 1.

Pythium aphanidermatum [6] = settings: 10 ml soil drench, from germination rate after 2 weeks
Procedure: Five seeds of test plants (cucumber, variety: Sagami hanpaku) were sowed in a pot (5×5 cm), which contains infested soil with Pythium aphanidermatum (mycelium 100 g/1 L soil) and the seeds were covered with the soil. […] After 2 weeks, the disease severity of the test plants was observed and the effectiveness of test sample was judged. Tests were carried out in triplicate using 5 plants for each test set and the preventive value was calculated from the germination rate.

Pythium glaminicola = settings: 10 ml soil drench, from percentage of onset area after 2 weeks
Procedure: Four germinated rice seeds (variety: Koshihikari) were sowed in a pot (5×5 cm), which contains infected soil with Pythium glaminicola (mycelium 100 g/1 L soil). The pot was drenched with 10 ml of D-tagatose dilution and the seeds were covered with soil. After 2 weeks, the disease severity of the test plants per rice seedling in 25 cm^2 was observed and the effectiveness of test sample was judged. Tests were carried out in duplicate and the preventive value was calculated from percentage of onset area.

Pythium aphanidermatum [7] = assay: cucumber damping-off, pot test: soil drench of D-tagatose combined with fungicides; settings: Pythium aphanidermatum, in Cucumis sativus, soil, 336 h, read-out: Preventive value
Procedure: Five seeds of test plants (cucumber, variety: Sagami hanpaku) were sowed in a pot (5×5 cm), which contains infested soil with Pythium aphanidermatum (mycelium 100 g/1 L soil) and was covered with soil. D-Tagatose was diluted to 5000 ppm and the fungicides were diluted to the concentrations listed in table 18, with distilled water. The pot was drenched with 10 ml of the dilution. After 2 weeks, the disease severity of the test plants was observed and the effectiveness of test sample was judged. Tests were carried out in triplicate using 5 plants for each test set and the preventive value was calculated from the germination rate.

Plasmopara viticola = settings: Plasmopara viticola, 168 h, read-out: Preventive value
Botrytis cinerea = settings: Botrytis cinerea, in Solanum lycopersicum, 168 h, read-out: Preventive value
Sphaerotheca fuliginea = settings: Podosphaera fuliginea, in Cucumis sativus, 168 h, read-out: Preventive value
Procedure: Test plants (cucumber, variety: Sagami hanpaku) were seeded and grown until the one true leaf stage. D-Tagatose and fungicide were diluted to 5000 ppm and the concentrations listed in table 20, respectively, with distilled water and 10 ml of the dilution was sprayed thoroughly on the plants. Three days after spraying, a condia suspension containing of Sphaerotheca fuliginea were inoculated by spraying on test plants.
Seven days after inoculation the disease severity of the test plants was observed and the effectiveness of test sample was judged.

Puccinia recondita [8] = settings: Puccinia recondita, in Triticum aestivum, 168 h, read-out: Preventive value
[9] = tested on: Erysiphe graminis f.sp. hordei; settings: Blumeria graminis, in Hordeum vulgare, 168 h, read-out: Preventive value
Procedure: Test plants (barley, variety: Akashinriki) were seeded and grown until the one leaf stage. D-tagatose and fungicide were diluted to 5000 ppm and the concentrations listed in table 21, respectively, with distilled water and 10 ml of the dilution was sprayed thoroughly on the plants. Three days after spraying, a condia suspension of Erysiphe graminis f.sp. hordei was inoculated by spraying on test plants. 7 days after inoculation the disease severity of the test plants was observed and the effectiveness of test sample was judged.

Phytophthora infestans [10] = assay: whole plant or invertebrate; format: in vivo; settings: Phytophthora infestans, in Solanum lycopersicum, 168 h, read-out: Preventive value
[11] = tested on: Pseudoperonospora cubensis; settings: Pseudoperonospora cubensis, in Cucumis sativus, 168 h, read-out: Preventive value
Procedure: Test plants (cucumber, variety: Sagami hanpaku) were seeded and grown until the one true leaf stage. D-Tagatose was diluted to 5000 ppm and the fungicides were diluted to the concentrations listed in table 14, with distilled water. And then 10 ml of the dilution was sprayed on the test plant. Three days after spraying of the solution, a sporangium suspension of Pseudoperonospora cubensis containing 1×10^3/ml were inoculated by spraying on test plants and then put for 16 hours in an inoculation chamber (20° C. to 23° C.) to promote disease. Seven days after inoculation the disease severity of the test plants was observed and the effectiveness of the test sample was judged. Tests were carried out using two plants for each test set and the disease severity of the test plants was judged in accordance with the following criteria. The preventive value was calculated from the degree of disease severity.
as §1
Preventive value=100{1−(n/N)} N=disease severity of untreated leaf, n=disease severity of the test leaf Synergistic effect was determined by Colby's equation.

[12] = tested on: Pseudoperonospora cubensis; settings: Pseudoperonospora cubensis, in Cucumis sativus, 168 h, read-out: Preventive value; remark: listed apart in the source
Procedure: Test plants (cucumber, variety: Sagami hanpaku) were seeded and grown until the one true leaf stage. And then, a sporangium suspension of Pseudoperonospora cubensis containing 1×10^3/ml were spraying for inoculation on the back side of the leaves of test plants and then put for 16 hours in an inoculation chamber (20° C. to 23° C.) to promote disease. For a curative test, the inoculated plants as described above were used.
D-Tagatose was diluted to 5000 ppm and the fungicides were diluted to the concentrations listed in table 15, with distilled water, and 10 ml of the dilution was sprayed. Seven days after inoculation the disease severity of the test plants was observed and the effectiveness of test sample was judged.

Puccinia recondita [13] = assay: wheat brown rust, field trial; settings: 200 ppm
Procedure: Test plants (variety: Nourin 61 gou) were sowed and grown until heading stage. D-Tagatose was diluted to 5% with distilled water and sprayed thoroughly on the plants two times every 8 days. Three days after the first spraying of the dilution, wheat leaves inoculated with wheat fusarium blight (Puccinia recondita) were kept in the test plants. The disease severity of the test plants was observed 21 days after last spraying and the effectiveness of test sample was judged. Tests were carried out in duplicate. One plot of each test was 5 m^2. The disease severity of the test plants was judged in accordance with the following criteria. The preventive value was calculated from the degree of disease severity.

Pyricularia oryze = assay: whole plant or invertebrate; format: in vivo; settings: Pyricularia, in Oryza sativa, 168 h, read-out: Preventive value

CSC(=O)c1cccc2nnsc12 [Acibenzolar-S-Methyl, acibenzolar-S-methyl]
Preventive value (3 DAS) ([1]; 50 ppm spray): 91.7
Preventive value (5 DAS) ([1]; 50 ppm spray): 99.2
Preventive value ([2]; 50 ppm): 95.0
Preventive value (control value) ([3]; 50 ppm sprayed after inoculation (curative)): 25.0

O=C(CO)[C@@H](O)[C@H](O)[C@H](O)CO [D-Fuctose, D-fructose]
Preventive value ([2]; 5000 ppm): 0.0

O=C[C@H](O)[C@@H](O)[C@H](O)[C@H](O)CO [D-Glucose]
Preventive value (Phytophthora infestans [4]; 50000 ppm spray): 0.0
Preventive value (Phytophthora infestans [4]; 100000 ppm spray): 0.0
Preventive value (Peronospora parasitica; 10000 ppm spray): 0.0
Preventive value (Peronospora parasitica; 50000 ppm spray): 0.0
Preventive value (Sphaerotheca fuligine; 10000 ppm spray): 0.0
Preventive value (Sphaerotheca fuligine; 50000 ppm spray): 0.0
Preventive value (3 DAS) ([1]; 5000 ppm spray): 0.0
Preventive value (5 DAS) ([1]; 5000 ppm spray): 0.0
Preventive value (3 DAS) ([1]; 10000 ppm spray): 0.0
Preventive value (5 DAS) ([1]; 10000 ppm spray): 0.0
Preventive value (3 DAS) ([1]; 50000 ppm spray): 0.0
Preventive value (5 DAS) ([1]; 50000 ppm spray): 0.0
Preventive value ([5]; 10000 ppm): 0.0
Preventive value ([5]; 50000 ppm): 0.0
Preventive value (Pythium aphanidermatum [6]; 10000 ppm): 0.0
Preventive value (Pythium aphanidermatum [6]; 50000 ppm): 0.0
Preventive value (control value) ([3]; 5000 ppm sprayed after inoculation (curative)): 0.0
Preventive value (control value) ([3]; 10000 ppm sprayed after inoculation (curative)): 0.0
Preventive value (control value) ([3]; 50000 ppm sprayed after inoculation (curative)): 0.0
Preventive value (Pythium glaminicola; 10000 ppm): 3.0
Preventive value (Pythium glaminicola; 50000 ppm): 4.5

O=C[C@@H](O)[C@@H](O)[C@H](O)[C@H](O)CO [D-Mannose, D-mannose]
Preventive value ([2]; 5000 ppm): 0.0

O=C(CO)[C@H](O)[C@H](O)[C@H](O)CO [D-Psicose, D-psicose]
Preventive value ([2]; 5000 ppm): 0.0

O=C(CO)[C@H](O)[C@@H](O)[C@H](O)CO [D-Sorbose, D-sorbose]
Preventive value ([2]; 5000 ppm): 0.0

COCC(=O)N(c1c(C)cccc1C)C(C)C(=O)OC (centres unmarked) [Metalaxyl, metalaxyl]
Preventive value (Phytophthora infestans [4]; 300 ppm spray): 93.3
Preventive value (Peronospora parasitica; 600 ppm spray): 98.4
pest or weed control at 5 ppm (Pythium aphanidermatum [7]): 83%
pest or weed control at 2 ppm (Plasmopara viticola): 50%
pest or weed control at 250 ppm (Botrytis cinerea): 0%
Preventive value (3 DAS) ([1]; 300 ppm spray): 100.0
Preventive value (5 DAS) ([1]; 300 ppm spray): 100.0
Preventive value ([5]; 300 ppm): 100.0
Preventive value (Pythium aphanidermatum [6]; 300 ppm): 95.0
pest or weed control at 250 ppm (Sphaerotheca fuliginea): 0%
pest or weed control at 250 ppm (Puccinia recondita [8]): 0%
Preventive value ([2]; 300 ppm): 100.0
pest or weed control at 250 ppm [9]: 0%
pest or weed control at 2 ppm (Phytophthora infestans [10]): 67%
Preventive value (control value) ([3]; 300 ppm sprayed after inoculation (curative)): 100.0
pest or weed control at 2 ppm [11]: 67%
pest or weed control at 2 ppm [12]: 33%

C=CCOC1=NS(=O)(=O)c2ccccc21 [Probenazole, probenazole]
Preventive value (3 DAS) ([1]; 100 ppm spray): 33.3
Preventive value (5 DAS) ([1]; 100 ppm spray): 95.0
Preventive value ([2]; 100 ppm): 66.7
Preventive value (control value) ([3]; 100 ppm sprayed after inoculation (curative)): 18.3

CC(C)(C)C(O)(CCc1ccc(Cl)cc1)Cn1cncn1 (centres unmarked) [Tebuconazole, tebuconazole]
D.D.S (Degree of disease severity), Av (Puccinia recondita [13]; average of plots): 0.2
Leaves number(n) of disease severity 0 (Puccinia recondita [13]; per plot (1, 2), 100 leaves): 98 and 100
Leaves number(n) of disease severity 2 (Puccinia recondita [13]; per plot (1, 2), 100 leaves): 0
Leaves number(n) of disease severity 3 (Puccinia recondita [13]; per plot (1, 2), 100 leaves): 0
Leaves number(n) of disease severity 4 (Puccinia recondita [13]; per plot (1, 2), 100 leaves): 0
Leaves number(n) of disease severity 5 (Puccinia recondita [13]; per plot (1, 2), 100 leaves): 0
Leaves number(n) of disease severity 6 (Puccinia recondita [13]; per plot (1, 2), 100 leaves): 0
P.V. (Preventive value), Av (Puccinia recondita [13]; sprayed two times every 8 days, rated 21 days after last spraying): 99.8
pest or weed control at 10 ppm (Botrytis cinerea): 33%
pest or weed control at 0.4 ppm (Sphaerotheca fuliginea): 73%
pest or weed control at 0.4 ppm (Puccinia recondita [8]): 50%
pest or weed control at 0.4 ppm [9]: 67%

CC(C)CC(C)c1sccc1NC(=O)c1cn(C)nc1C(F)(F)F (centres unmarked) [penthiopyrad]
pest or weed control at 250 ppm (Pythium aphanidermatum [7]): 0%
pest or weed control at 50 ppm (Plasmopara viticola): 0%
pest or weed control at 10 ppm (Botrytis cinerea): 67%
pest or weed control at 50 ppm (Pyricularia oryze): 40%
pest or weed control at 0.4 ppm (Sphaerotheca fuliginea): 50%
pest or weed control at 0.4 ppm (Puccinia recondita [8]): 67%
pest or weed control at 0.4 ppm [9]: 67%
pest or weed control at 50 ppm (Phytophthora infestans [10]): 0%
pest or weed control at 50 ppm [11]: 0%
pest or weed control at 50 ppm [12]: 0%

C[Si](C)(C)CC(O)(Cn1cncn1)c1ccc(F)cc1 (centres unmarked) [simeconazole]
pest or weed control at 250 ppm (Pythium aphanidermatum [7]): 0%
pest or weed control at 250 ppm (Plasmopara viticola): 0%
pest or weed control at 50 ppm (Botrytis cinerea): 33%
pest or weed control at 250 ppm (Pyricularia oryze): 73%
pest or weed control at 0.4 ppm (Sphaerotheca fuliginea): 83%
pest or weed control at 10 ppm (Puccinia recondita [8]): 67%
pest or weed control at 0.4 ppm [9]: 50%
pest or weed control at 250 ppm (Phytophthora infestans [10]): 0%
pest or weed control at 250 ppm [11]: 0%
pest or weed control at 250 ppm [12]: 0%

COC(=O)NC(=S)Nc1ccccc1NC(=S)NC(=O)OC [thiophanate-methyl]
pest or weed control at 250 ppm (Pythium aphanidermatum [7]): 0%
pest or weed control at 250 ppm (Plasmopara viticola): 0%
pest or weed control at 50 ppm (Botrytis cinerea): 83%
pest or weed control at 250 ppm (Pyricularia oryze): 83%
pest or weed control at 10 ppm (Sphaerotheca fuliginea): 83%
pest or weed control at 10 ppm (Puccinia recondita [8]): 40%
pest or weed control at 10 ppm [9]: 83%
pest or weed control at 250 ppm (Phytophthora infestans [10]): 0%
pest or weed control at 250 ppm [11]: 0%
pest or weed control at 250 ppm [12]: 0%
